Laboratory results published in patent US7968577B2 (Bristol-Myers Squibb Company, priority 2006, dated 2011).

Biological target: T1, human full-length glucocorticoid receptor (Homo sapiens, UniProt P04150)
T1 construct: recombinantly expressed human full-length glucocorticoid receptor; purchased PanVera Co., Madison, Wis; P2816
T1 sequence (P04150 1-777): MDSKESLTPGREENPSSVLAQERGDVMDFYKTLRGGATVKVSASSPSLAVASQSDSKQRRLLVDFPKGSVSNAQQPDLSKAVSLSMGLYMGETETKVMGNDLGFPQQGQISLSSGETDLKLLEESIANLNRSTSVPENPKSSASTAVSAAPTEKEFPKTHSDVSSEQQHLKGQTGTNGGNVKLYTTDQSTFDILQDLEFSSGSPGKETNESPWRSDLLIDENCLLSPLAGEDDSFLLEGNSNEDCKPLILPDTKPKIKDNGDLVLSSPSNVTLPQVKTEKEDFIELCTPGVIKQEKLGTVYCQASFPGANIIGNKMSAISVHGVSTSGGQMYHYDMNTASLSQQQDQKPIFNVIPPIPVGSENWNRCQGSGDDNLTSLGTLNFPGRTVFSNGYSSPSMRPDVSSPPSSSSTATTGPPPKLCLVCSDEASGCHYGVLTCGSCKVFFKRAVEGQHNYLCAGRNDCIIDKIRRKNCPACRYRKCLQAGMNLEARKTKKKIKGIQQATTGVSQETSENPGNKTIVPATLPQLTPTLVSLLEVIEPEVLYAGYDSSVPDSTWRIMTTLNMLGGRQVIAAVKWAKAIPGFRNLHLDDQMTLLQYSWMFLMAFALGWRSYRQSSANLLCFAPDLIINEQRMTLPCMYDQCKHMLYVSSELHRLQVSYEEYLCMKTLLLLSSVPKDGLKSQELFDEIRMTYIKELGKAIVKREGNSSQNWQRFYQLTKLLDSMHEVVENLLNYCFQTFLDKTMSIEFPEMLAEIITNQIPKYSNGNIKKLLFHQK
Assay: Glucocorticoid Receptor Binding Assay (II), fluorescence polarization competitor kit (Fluormone GS1)
Conditions: GR Binding Assay (II)
Protocol: Glucocorticoid Receptor Binding Assay (II)^b
In order to measure the binding of compounds on the glucocorticoid receptor a commercially available kit was used (Glucocorticoid receptor competitor assay kit, PanVera Co., Madison, Wis., P2816). Briefly, a cell lysate containing recombinantly expressed human full-length glucocorticoid receptor was mixed with a fluorescently labeled glucocorticoid (1 nM Fluormone GS1) in the presence or absence of test compound. After one hour at room temperature, the fluorescence polarization (FP) of the samples were measured.

SMILES | Ki
CC(C)(C(=O)Nc1nncs1)C(c1ccc(F)cc1)c1ccc(N2CCOCC2)cc1 (centres unmarked) [Example 231, 3-(4-fluorophenyl)-2,2-dimethyl-3-(4-(4-morpholinyl)phenyl)-N-1,3,4-thiadiazol-2-ylpropanamide] | 18.2 nM
CCOC(=O)c1csc(NC(=O)C(C)(C)[C@@H](c2ccccc2)c2ccc(O)cc2)n1 [Example 338, ethyl 2-(((3S)-3-(4-hydroxyphenyl)-2,2-dimethyl-3-phenylpropanoyl)amino)-1,3-thiazole-4-carboxylate] | 11.8 nM
COc1ccc([C@H](c2ccccc2)C(C)(C)C(=O)Nc2ccncn2)cc1 [Example 278, (3S)-2,2-dimethyl-3-(4-(methyloxy)phenyl)-3-phenyl-N-4-pyrimidinylpropanamide] | 1850 nM
COc1ccc([C@H](c2ccccc2)C(C)(C)C(=O)NC2CCC2)cc1 [Example 271, (3S)-N-cyclobutyl-2,2-dimethyl-3-(4-(methyloxy)phenyl)-3-phenylpropanamide] | 770 nM
CC(C)(C(=O)Nc1nccs1)C(c1ccc(F)cc1)c1ccc(N2CCOCC2)cc1 (centres unmarked) [Example 222, 3-(4-Fluorophenyl)-2,2-dimethyl-3-(4-(4-morpholinyl)phenyl)-N-1,3-thiazol-2-ylpropanamide] | 12.6 nM
CC(C)(C(=O)Nc1nncs1)C(c1ccc(Cl)cc1)c1ccc(N2CCOCC2)cc1 (centres unmarked) [Example 233, 3-(4-chlorophenyl)-2,2-dimethyl-3-(4-(4-morpholinyl)phenyl)-N-1,3,4-thiadiazol-2-ylpropanamide] | 13.2 nM
CC(=O)Nc1ccc(C(c2ccccc2)C(C)(C)C(=O)Nc2nncs2)cc1 (centres unmarked) [Example 246, 3-(4-(acetylamino)phenyl)-2,2-dimethyl-3-phenyl-N-1,3,4-thiadiazol-2-ylpropanamide] | 1500 nM
CC(C)(C(=O)Nc1nncs1)C(c1ccccc1)c1ccc(O)cc1F (centres unmarked) [Example 344, 3-(2-fluoro-4-hydroxyphenyl)-2,2-dimethyl-3-phenyl-N-1,3,4-thiadiazol-2-ylpropanamide] | 43.2 nM
CC(C)(C(=O)Nc1ccccn1)[C@@H](c1ccccc1)c1ccc(O)cc1 [Example 341, (3S)-3-(4-hydroxyphenyl)-2,2-dimethyl-3-phenyl-N-2-pyridinylpropanamide] | 175 nM
CC(C)(C(=O)Nc1nncs1)C(c1ccccc1)c1cccc(N2CCOCC2)c1 (centres unmarked) [Example 245, 2,2-dimethyl-3-(3-(4-morpholinyl)phenyl)-3-phenyl-N-1,3,4-thiadiazol-2-ylpropanamide] | 2310 nM
CC(C)(C(=O)Nc1nncs1)C(c1ccccc1)c1ccc(N2CCC(O)CC2)cc1 (centres unmarked) [Example 241, 3-(4-(4-hydroxy-1-piperidinyl)phenyl)-2,2-dimethyl-3-phenyl-N-1,3,4-thiadiazol-2-ylpropanamide] | 31.3 nM

Further lines, results first:

Ki | SMILES
31.9 nM | CC(C)(C(=O)Nc1nccs1)[C@H](c1ccccc1)c1ccc(OC(=O)c2ccoc2)cc1 [Example 365, 4-((1R)-2,2-dimethyl-3-oxo-1-phenyl-3-(1,3-thiazol-2-ylamino)propyl)phenyl 3-furancarboxylate]
17.8 nM | CC(C)(C(=O)Nc1nccs1)[C@H](c1ccccc1)c1cccc(O)c1 [Example 328, 3-(3-hydroxyphenyl)-2,2-dimethyl-3-phenyl-N-1,3-thiazol-2-ylpropanamide]
315 nM | COc1ccc([C@@H](c2ccccc2)C(C)(C)C(=O)Nc2nc(C)cs2)cc1 [Example 266, 2,2-dimethyl-3-(4-(methyloxy)phenyl)-N-(4-methyl-1,3-thiazol-2-yl)-3-phenylpropanamide]
19.2 nM | CC(=O)c1ccc(C(c2ccccc2)C(C)(C)C(=O)Nc2nccs2)cc1 (centres unmarked) [Example 368, 3-(4-Acetylphenyl)-2,2-dimethyl-3-phenyl-N-1,3-thiazol-2-ylpropanamide]
14.7 nM | COc1ccc([C@H](c2ccccc2)C(C)(C)C(=O)Nc2nncs2)cc1Br [Example 287, (3S)-3-(3-bromo-4-(methyloxy)phenyl)-2,2-dimethyl-3-phenyl-N-1,3,4-thiadiazol-2-ylpropanamide]
29.5 nM | COc1ccc(C(c2ccccc2)C(C)(C)C(=O)Nc2nccs2)cc1F (centres unmarked) [Example 282, 3-(3-fluoro-4-(methyloxy)phenyl)-2,2-dimethyl-3-phenyl-N-1,3-thiazol-2-ylpropanamide]
15.5 nM | COc1ccc(C(c2ccccc2)C(C)(C)C(=O)Nc2nccs2)cc1F (centres unmarked) [Example 281, 3-(3-fluoro-4-(methyloxy)phenyl)-2,2-dimethyl-3-phenyl-N-1,3-thiazol-2-ylpropanamide]
26.9 nM | CC(C)(C(=O)Nc1nccs1)[C@H](c1ccccc1)c1ccc(OC(=O)C2CCCO2)cc1 (stereo partly drawn) [Example 367, 4-((1R)-2,2-dimethyl-3-oxo-1-phenyl-3-(1,3-thiazol-2-ylamino)propyl)phenyl tetrahydro-2-furancarboxylate]
46.7 nM | COc1ccc([C@@H](c2ccccc2)C(C)(C)C(=O)Nc2nccs2)cc1Br [Example 286, (3R)-3-(3-bromo-4-(methyloxy)phenyl)-2,2-dimethyl-3-phenyl-N-1,3-thiazol-2-ylpropanamide]
45.7 nM | COc1ccc([C@@H](c2ccccc2)C(C)(C)C(=O)Nc2nccs2)cc1C#N [Example 296, (3R)-3-(3-Cyano-4-(methyloxy)phenyl)-2,2-dimethyl-3-phenyl-N-1,3-thiazol-2-ylpropanamide]
204 nM | Cc1cnc(NC(=O)C(C)(C)[C@H](c2ccccc2)c2ccc(O)cc2)s1 [Example 332, (3R)-3-(4-hydroxyphenyl)-2,2-dimethyl-N-(5-methyl-1,3-thiazol-2-yl)-3-phenylpropanamide]
193 nM | COc1ccc([C@H](c2ccccc2)C(C)(C)C(=O)Nc2nc(C)cs2)cc1 [Example 265, 2,2-dimethyl-3-(4-(methyloxy)phenyl)-N-(4-methyl-1,3-thiazol-2-yl)-3-phenylpropanamide]
47 nM | CC(C)(C(=O)Nc1nccs1)[C@H](c1ccccc1)c1ccc(OC(=O)c2ccco2)cc1 [Example 363, 4-((1R)-2,2-dimethyl-3-oxo-1-phenyl-3-(1,3-thiazol-2-ylamino)propyl)phenyl 2-furancarboxylate]
29.1 nM | CC(C)(C(=O)Nc1nccs1)C(c1ccccc1)c1ccc(Nc2ccc(F)cc2)cc1 (centres unmarked) [Example 243, 3-(4-((4-fluorophenyl)amino)phenyl)-2,2-dimethyl-3-phenyl-N-1,3-thiazol-2-ylpropanamide]
26.3 nM | CC(C)(C(=O)Nc1nccs1)C(c1ccccc1)c1ccc(Cl)cc1 (centres unmarked) [Example 306, 3-(4-chlorophenyl)-2,2-dimethyl-3-phenyl-N-1,3-thiazol-2-ylpropanamide]
16 nM | CC(C)(C(=O)Nc1nccs1)C(c1ccccc1)c1ccc(O)c(F)c1 (centres unmarked) [Example 346, 3-(3-fluoro-4-hydroxyphenyl)-2,2-dimethyl-3-phenyl-N-1,3-thiazol-2-ylpropanamide]

Tested on: AP-1 induced transcriptional activity
Assay: Cellular Transrepressional Assay: AP-1 luciferase reporter in PMA-activated A549 cells
Format: cell-based
Conditions: Cellular Transrepression Assay
Procedure, shortened: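 A549 cells stably carrying a 7× AP-1–luciferase reporter were stimulated with 10 ng/ml PMA with or without compound (0.1 nM–40 μM) for 7 h. Luminescence read 10 min after luciferase reagent; EC50 fitted from % decrease versus PMA-only signal.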

EC50 | SMILES
4.06 nM | CC(C)(C(=O)Nc1nncs1)C(c1ccccc1)c1ccc(N2CCOCC2)cc1 (centres unmarked) [Example 260, 2,2-dimethyl-3-(4-(4-morpholinyl)phenyl)-3-phenyl-N-1,3,4-thiadiazol-2-ylpropanamide]

Same assay, conditions: Homo sapiens, A549, 7 h, maximum inhibition, Cellular Transrepression Assay; read-out: AP-1 Max % inh (Cellular Transrepression Assay)

SMILES | Emax
COc1ccc([C@@H](c2ccccc2)C(C)(C)C(=O)Nc2nncs2)cc1 [Example 276, (3R)-2,2-dimethyl-3-(4-(methyloxy)phenyl)-3-phenyl-N-1,3,4-thiadiazol-2-ylpropanamide] | 34%
Cc1cccc(-c2csc(NC(=O)C(C)(C)C(c3ccccc3)c3ccccc3)n2)c1 [Example 170, 2,2-dimethyl-N-(4-(3-methylphenyl)-1,3-thiazol-2-yl)-3,3-diphenylpropanamide] | 27%
CC(C)(C(=O)Nc1nncs1)C(c1ccc(N2CCOCC2)cc1)c1cccc(F)c1 (centres unmarked) [Example 229, 3-(3-fluorophenyl)-2,2-dimethyl-3-(4-(4-morpholinyl)phenyl)-N-1,3,4-thiadiazol-2-ylpropanamide] | 44.2%
COc1cccc(C(c2ccccc2)C(C)(C)C(=O)Nc2nc(C)c(C)s2)c1 (centres unmarked) [Example 94, N-(4,5-dimethyl-1,3-thiazol-2-yl)-2,2-dimethyl-3-(3-(methyloxy)phenyl)-3-phenylpropanamide] | 35.4%

Same assay, conditions: Homo sapiens, A549, Cellular Transrepression Assay

EC50 | SMILES
190 nM | COc1ccc([C@@H](c2ccccc2)C(C)(C)C(=O)Nc2nncs2)cc1 [Example 276, (3R)-2,2-dimethyl-3-(4-(methyloxy)phenyl)-3-phenyl-N-1,3,4-thiadiazol-2-ylpropanamide]
18.6 nM | CC(C)(C(=O)Nc1nncs1)C(c1ccc(N2CCOCC2)cc1)c1cccc(F)c1 (centres unmarked) [Example 229, 3-(3-fluorophenyl)-2,2-dimethyl-3-(4-(4-morpholinyl)phenyl)-N-1,3,4-thiadiazol-2-ylpropanamide]

Same assay, conditions: maximum inhibition, Cellular Transrepression Assay

SMILES | AP-1 Max % inh (Cellular Transrepression Assay)
CC(C)(C(=O)Nc1nncs1)C(c1ccccc1)c1ccc(N2CCOCC2)cc1 (centres unmarked) [Example 260, 2,2-dimethyl-3-(4-(4-morpholinyl)phenyl)-3-phenyl-N-1,3,4-thiadiazol-2-ylpropanamide] | 35.64%
